From publication PMC8355692, “Antimelanoma activities of chimeric thiazole–androstenone derivatives” (Royal Society Open Science, 2021)

Tests used:
Assay type in all cases: cell-based
LOX IMVI = test: NCI DTP 60 cell line five-concentration test, melanoma panel; settings: for LC50 (50% lethal concentration) / GI50: Homo sapiens; for LC50 (50% lethal concentration): LOX IMVI, read-out: LC50 (50% lethal concentration); for GI50 / TGI (total growth inhibition): LOX IMVI melanoma cell line
Procedure: (§1) In our effort to develop new methodologies to synthesize bioactive compounds [11–14], we have synthesized a number of thiazole and thiazolo-androstenone derivatives. We submitted 50 of the synthesized thiazole–androstenone derivatives to the National Cancer Institute (NCI) Development Therapeutics Program (DTP) to test against 60 cancer cell lines (https://dtp.cancer.gov/). These compounds were tested for cytotoxicity at a single dose of 10 µM. […] Eight of these chimeric compounds (figure 2) were selected for further testing at five different concentrations to determine 50% growth inhibition (GI50), total growth inhibition (TGI) and 50% lethal concentration (LC50) values. […] Overall, amino-thiazole derivatives (table 1, 1–7) were more toxic to melanoma cell lines than phenyl thiazole derivatives (8). Fluoro and oxy (hydroxy and methoxy) derivatives were the potent growth inhibitors of the tested cancer cell lines. LOX IMVI cell line was the most susceptible among all the melanoma cell lines used against the tested compounds (table 1). […] Phenyl ethyl derivative (1) inhibited the growth of all the cell lines except SK-MEL-2. […] 2,4-Dimethyl substituted derivative (7) is a potent growth inhibitor of all the tested cell lines of the melanoma panel.

M14 = test: as above; settings: for CC50: M14, read-out: LC50 (50% lethal concentration)
Procedure: as §1

MALME-3M = test: as above; settings: for CC50 / GI50: Homo sapiens; for CC50: Malme-3M, read-out: LC50 (50% lethal concentration); for GI50 / TGI (total growth inhibition): MALME-3M melanoma cell line
Procedure: as §1

MDA-MB-435 = test: as above; settings: for CC50 / GI50: Homo sapiens; for CC50: MDA-MB-435, read-out: LC50 (50% lethal concentration); for GI50 / TGI (total growth inhibition): MDA-MB-435 melanoma cell line
Procedure: as §1

SK-MEL-28 = test: as above; settings: for CC50: SK-MEL-28, read-out: LC50 (50% lethal concentration)
Procedure: as §1

SK-MEL-2 = test: as above; settings: for LC50 (50% lethal concentration) / GI50: Homo sapiens; for LC50 (50% lethal concentration): SK-MEL-2, read-out: LC50 (50% lethal concentration); for GI50 / TGI (total growth inhibition): SK-MEL-2 melanoma cell line
Procedure: as §1

SK-MEL-5 = test: as above; settings: for CC50 / GI50: Homo sapiens; for CC50: SK-MEL-5, read-out: LC50 (50% lethal concentration); for GI50 / TGI (total growth inhibition): SK-MEL-5 melanoma cell line
Procedure: as §1

UACC-257 = test: as above; settings: for CC50 / GI50: Homo sapiens; for CC50: UACC-257, read-out: LC50 (50% lethal concentration); for GI50 / TGI (total growth inhibition): UACC-257 melanoma cell line
Procedure: as §1

UACC-62 = test: as above; settings: for LC50 (50% lethal concentration): UACC-62, read-out: LC50 (50% lethal concentration)
Procedure: as §1

HFF-1 cell line = test: Toxicity for normal human foreskin fibroblast cell line; settings: normal human foreskin fibroblast HFF-1; for IC50: read-out: IC50 against HFF1 cell line
Excerpt: To assess the potential use of lead compounds as anti-melanoma agents, we tested their toxicity for the normal human foreskin fibroblast (HFF-1) cell line taking into consideration that MM is usually surrounded by the cells of this kind. The effects of some of the potent compounds on this cell line were very encouraging (table 4).

heme oxygenase-1 (HO1) = test: HO1 immunocytochemistry combined with TUNEL (oxidative injury); settings: melanoma cells, 24 h; for HO1 mean intensity (oxidative injury): 10 µM; for HO1 staining in TUNEL-positive cells (oxidative injury): 5 or 10 µM
Excerpt: (§2) The elevation was dose-dependent.
(§3) Figure 4. […] (c) Representative images. […] Mean ± s.e.m., n = 4 per group.
(§4) Figure 5. […] (a) Representative images of TUNEL colocalized or not colocalized with each of the three protein markers used in this study. […] Mean ± s.e.m., n = 4 per group.
(§5) Thus, to determine the mechanism of action of our compounds on melanoma cells in vitro, we applied the fluorescent TUNEL assay combined with quantitative ICC for three markers: HO1 for oxidative cell injury, CAD for caspase-mediated apoptosis and EndoG for caspase-independent apoptosis. […] However, none of the compounds or dacarbazine induced apoptotic endonucleases. This is not surprising because apoptotic endonucleases are commonly present in the cell in sufficient amounts to be able to destroy DNA upon cell death without induction (which most likely would not be possible in a dead cell).

[1] = tested on: caspase-activated DNase (CAD); test: CAD immunocytochemistry combined with TUNEL (caspase-mediated apoptosis); settings: melanoma cells, 5 or 10 µM, 24 h
Excerpt: as §2, §3, §4, §5

endonuclease G (EndoG) = test: EndoG immunocytochemistry combined with TUNEL (caspase-independent apoptosis); settings: melanoma cells, 5 or 10 µM, 24 h
Excerpt: as §2, §3, §4, §5

SK-MEL-28 cell line = test: Annexin V flow cytometry apoptosis assay
Procedure: After determining the selective toxicity of potent molecules, we determined their mode of action against the melanoma cell line. Apoptosis or programmed cell death is a physiological process to remove unwanted or damaged mammalian cells. We detected apoptosis mode of cell death by our potent compounds using flow cytometry-based Annexin V assay. Compound 3 caused 23% apoptosis at 6 µM and 54% apoptosis at 12 µM (figure 3). 3-Fluorophenyl derivative (5) was a very potent apoptosis-inducing agent that caused 100% cell death at 12 µM concentration. Dacarbazine, the positive control, caused 22% apoptotic cell death at 200 µM concentration.
Figure 3. Apoptosis measurements using Annexin V flow cytometry assay of compounds 3 and 5 against SK-MEL-28 cell line at 6 and 12 µM concentrations. DMSO and dacarbazine (Daca) are negative and positive controls, respectively. Mean ± s.e.m., n = 3 per group.

[2] = Homo sapiens, M14, M14 melanoma cell line
[3] = Homo sapiens, SK-MEL-28, SK-MEL-28 melanoma cell line
[4] = Homo sapiens, UACC-62, UACC-62 melanoma cell line

SMILES | LC50 (50% lethal concentration) (LOX IMVI) | GI50 (LOX IMVI) | TGI (total growth inhibition) (LOX IMVI) | GI50 (M14; [2]) | CC50 (M14; Homo sapiens) | TGI (total growth inhibition) (M14; M14 melanoma cell line) | CC50 (MALME-3M) | GI50 (MALME-3M) | TGI (total growth inhibition) (MALME-3M) | CC50 (MDA-MB-435) | GI50 (MDA-MB-435) | TGI (total growth inhibition) (MDA-MB-435) | GI50 (SK-MEL-28; [3]) | CC50 (SK-MEL-28; Homo sapiens) | TGI (total growth inhibition) (SK-MEL-28; SK-MEL-28 melanoma cell line) | LC50 (50% lethal concentration) (SK-MEL-2) | GI50 (SK-MEL-2) | TGI (total growth inhibition) (SK-MEL-2) | CC50 (SK-MEL-5) | GI50 (SK-MEL-5) | also measured
C[C@]12CCc3nc(Nc4ccccc4)sc3C1=CC[C@@H]1[C@@H]2CC[C@]2(C)C(=O)CC[C@@H]12 [Compound 2] | 48.1 µM | 3.22 µM | 10.8 µM | < 10 µM | > 100 µM | 50.9 µM | > 100 µM | 21.2 µM | >100 µM | > 100 µM | 3.49 µM | >100 µM | 20.5 µM | > 100 µM | >100 µM | > 100 µM | 17.1 µM | 60.8 µM | 66.2 µM | 10.2 µM | GI50 (M14; M14 melanoma cell line): 7.88 µM; TGI (total growth inhibition) (SK-MEL-5): 26.0 µM; CC50 (UACC-257): > 100 µM; GI50 (UACC-257): 23.8 µM; TGI (total growth inhibition) (UACC-257): 94.5 µM; GI50 (UACC-62; [4]): < 10 µM; LC50 (50% lethal concentration) (UACC-62; Homo sapiens): 89.7 µM; GI50 (UACC-62; UACC-62 melanoma cell line): 9.54 µM; TGI (total growth inhibition) (UACC-62; UACC-62 melanoma cell line): 29.6 µM; IC50 (HFF-1 cell line): 21 µM
C[C@]12CCc3nc(Nc4cccc(O)c4)sc3C1=CC[C@@H]1[C@@H]2CC[C@]2(C)C(=O)CC[C@@H]12 [Compound 4] | 5.94 µM | 1.67 µM | 3.15 µM | 2.97 µM | > 100 µM | >100 µM | > 100 µM | 1.49 µM | 3.01 µM | > 100 µM | 2.53 µM | >100 µM | ≥ 1.32 µM | > 100 µM | 3.31 µM | 91.4 µM | 2.86 µM | 9.99 µM | > 100 µM | 5.7 µM | GI50 (SK-MEL-28; SK-MEL-28 melanoma cell line): 1.32 µM; TGI (total growth inhibition) (SK-MEL-5): >100 µM; CC50 (UACC-257): > 100 µM; GI50 (UACC-257): 3.69 µM; TGI (total growth inhibition) (UACC-257): >100 µM; GI50 (UACC-62; [4]): 2.08 µM; LC50 (50% lethal concentration) (UACC-62; Homo sapiens): > 100 µM; TGI (total growth inhibition) (UACC-62; UACC-62 melanoma cell line): 5.25 µM; IC50 (HFF-1 cell line): 8.6 µM; HO1 mean intensity (oxidative injury) (heme oxygenase-1 (HO1)): induced oxidative injury; CAD mean intensity [1]: No significant induction; colocalization of CAD with TUNEL (caspase-mediated apoptosis) [1]: induced the colocalization of CAD with TUNEL; EndoG mean intensity (endonuclease G (EndoG)): No significant induction
C[C@]12CCc3nc(Nc4ccc(OC(F)(F)F)cc4)sc3C1=CC[C@@H]1[C@@H]2CC[C@]2(C)C(=O)CC[C@@H]12 [Compound 3] | 5.82 µM | 1.74 µM | 3.18 µM | 3.29 µM | 46.6 µM | 8.72 µM | 84.5 µM | 3.45 µM | 16.8 µM | 44.2 µM | 2.72 µM | 10.1 µM | ≥ 1.32 µM | 49.2 µM | 7.98 µM | 55.6 µM | 3 µM | 11.6 µM | 41.4 µM | 2.62 µM | GI50 (SK-MEL-28; SK-MEL-28 melanoma cell line): 1.88 µM; TGI (total growth inhibition) (SK-MEL-5): 7.41 µM; CC50 (UACC-257): > 100 µM; GI50 (UACC-257): 4.89 µM; TGI (total growth inhibition) (UACC-257): 28.8 µM; GI50 (UACC-62; [4]): 3.03 µM; LC50 (50% lethal concentration) (UACC-62; Homo sapiens): > 100 µM; TGI (total growth inhibition) (UACC-62; UACC-62 melanoma cell line): 10.3 µM; toxicity against HFF1 cells (in words) (HFF-1 cell line): did not show any notable toxicity; IC50 (HFF-1 cell line): > 100 µM; apoptosis (SK-MEL-28 cell line; SK-MEL-28, 6 µM): 23%; apoptosis (SK-MEL-28 cell line; SK-MEL-28, 12 µM): 54%; HO1 staining in TUNEL-positive cells (oxidative injury) (heme oxygenase-1 (HO1)): strongly induced oxidative injury; CAD mean intensity [1]: No significant induction; colocalization of CAD with TUNEL (caspase-mediated apoptosis) [1]: induced the colocalization of CAD with TUNEL; EndoG mean intensity (endonuclease G (EndoG)): No significant induction
Cc1ccc(Nc2nc3c(s2)C2=CC[C@@H]4[C@H](CC[C@]5(C)C(=O)CC[C@@H]45)[C@@]2(C)CC3)c(C)c1 [Compound 7] | 5.96 µM | 1.64 µM | 3.13 µM | 1.85 µM | > 100 µM | 3.79 µM | > 100 µM | 1.99 µM | 5.55 µM | > 100 µM | 3.02 µM | >100 µM | 2.31 µM | > 100 µM | 6.08 µM | 22.7 µM | 2.19 µM | 4.74 µM | 7.47 µM | 1.86 µM | TGI (total growth inhibition) (SK-MEL-5): 3.73 µM; CC50 (UACC-257): > 100 µM; GI50 (UACC-257): 3.7 µM; GI50 (UACC-62; [4]): 1.72 µM; LC50 (50% lethal concentration) (UACC-62; Homo sapiens): 9.02 µM; TGI (total growth inhibition) (UACC-62; UACC-62 melanoma cell line): 3.94 µM; IC50 (HFF-1 cell line): 40 µM
C[C@]12CCc3nc(Nc4cccc(F)c4)sc3C1=CC[C@@H]1[C@@H]2CC[C@]2(C)C(=O)CC[C@@H]12 [Compound 5] | 6.16 µM | 1.67 µM | 3.21 µM | 2.36 µM | 81.4 µM | 7.23 µM | 26.7 µM | 1.94 µM | 5.04 µM | > 100 µM | 2.74 µM | 13.1 µM | ≥ 1.32 µM | 19.9 µM | 4.27 µM | 26.7 µM | 1.86 µM | 5.19 µM | 9.24 µM | 2.02 µM | GI50 (SK-MEL-28; SK-MEL-28 melanoma cell line): 1.52 µM; TGI (total growth inhibition) (SK-MEL-5): 4.32 µM; CC50 (UACC-257): > 100 µM; GI50 (UACC-257): 5.47 µM; TGI (total growth inhibition) (UACC-257): 64 µM; GI50 (UACC-62; [4]): 1.54 µM; LC50 (50% lethal concentration) (UACC-62; Homo sapiens): 6.31 µM; TGI (total growth inhibition) (UACC-62; UACC-62 melanoma cell line): 3.12 µM; toxicity against HFF1 cells (in words) (HFF-1 cell line): somewhat toxic; IC50 (HFF-1 cell line): 5.9 µM; apoptosis (SK-MEL-28 cell line; SK-MEL-28, 12 µM): 100%; HO1 mean intensity (oxidative injury) (heme oxygenase-1 (HO1)): induced oxidative injury; HO1 staining in TUNEL-positive cells (oxidative injury) (heme oxygenase-1 (HO1)): strongly induced oxidative injury; CAD mean intensity [1]: No significant induction; colocalization of CAD with TUNEL (caspase-mediated apoptosis) [1]: induced the colocalization of CAD with TUNEL; EndoG mean intensity (endonuclease G (EndoG)): No significant induction
